Molecular target: T1, SIRT1 (Homo sapiens, UniProt Q96EB6)
T1 sequence (Q96EB6 1-747): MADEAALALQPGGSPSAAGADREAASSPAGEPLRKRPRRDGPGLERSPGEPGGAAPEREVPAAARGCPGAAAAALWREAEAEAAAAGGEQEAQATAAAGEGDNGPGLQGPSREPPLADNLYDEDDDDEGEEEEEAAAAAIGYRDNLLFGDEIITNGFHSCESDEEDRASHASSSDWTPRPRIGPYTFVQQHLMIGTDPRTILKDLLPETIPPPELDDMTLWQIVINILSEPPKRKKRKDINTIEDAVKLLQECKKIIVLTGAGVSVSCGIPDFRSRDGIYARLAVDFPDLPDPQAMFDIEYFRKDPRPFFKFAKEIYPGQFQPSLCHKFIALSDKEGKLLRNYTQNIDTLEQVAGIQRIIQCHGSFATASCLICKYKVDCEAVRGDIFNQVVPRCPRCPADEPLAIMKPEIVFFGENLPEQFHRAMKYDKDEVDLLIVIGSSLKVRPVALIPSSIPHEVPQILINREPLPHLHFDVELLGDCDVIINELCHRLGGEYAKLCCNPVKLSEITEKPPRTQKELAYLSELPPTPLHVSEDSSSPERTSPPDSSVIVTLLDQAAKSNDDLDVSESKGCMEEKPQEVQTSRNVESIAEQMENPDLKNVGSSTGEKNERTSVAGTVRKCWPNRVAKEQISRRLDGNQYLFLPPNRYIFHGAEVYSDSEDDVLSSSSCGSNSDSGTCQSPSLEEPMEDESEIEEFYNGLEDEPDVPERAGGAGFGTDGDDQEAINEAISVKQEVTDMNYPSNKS
Test: Trp mass spectrometry assay (SIRT1 activation)
Type: biochemical
Details: Trp peptide substrate; for Tryp AVG EC1.5 (μM): concentration of test compound that results in 150% activation of SIRT1; for Emax: percent maximum fold activation of SIRT1, read-out: Tryp % Fold Act
Procedure, shortened: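 Activation is expressed as EC1.5, the concentration raising activity 50% above DMSO control, and as maximum percent of control. Mass-spec readout was OAADPR or deacetylated Trp peptide after a formic-acid-quenched 25-min, 25 °C reaction: 10 nM bacterially expressed His-SIRT1, 0.5 μM acetyl-p53-derived peptide, 120 μM NAD+, pH 7.5 HEPES with […].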

Tryp AVG EC1.5 (μM)	Emax [%]	Structure (SMILES)
C (EC1.5>25 μM)	≥ 150	O=C(Nc1ccc(F)cn1)N1c2nc(N3CCCC(C(F)(F)F)C3)ccc2N2CCC[C@@H]1C2 (some centres unmarked) [Example 362]
B (EC1.5 1-25 μM)	≥ 150	O=C(Nc1cnccn1)N1c2nc(-c3cc(C(F)(F)F)cc(C(F)(F)F)c3)ccc2C2CC[C@H]1C2 [Example 363]
B (EC1.5 1-25 μM)	≥ 150	O=C(Nc1cnccn1)N1c2nc(-c3cc(Cl)cc(Cl)c3)ccc2N2CC[C@H]1C2 [Example 364]
A (EC1.5<1 μM)	≥ 150	O=C(Nc1cccc(-c2cnco2)c1)N1c2nc(-c3cccc(Cl)c3)ccc2N2CC[C@H]1C2 [Example 365]
A (EC1.5<1 μM)	≥ 150	COc1cncc(NC(=O)N2c3nc(-c4cccc(N5CCCC5)c4)ccc3N3CC[C@H]2C3)n1 [Example 366]
A (EC1.5<1 μM)	≥ 150	O=C(Nc1ccccn1)N1c2nc(-c3ccnc(N4CCC(C(F)(F)F)C4)c3)ccc2N2CC[C@H]1C2 (some centres unmarked) [Example 367]
B (EC1.5 1-25 μM)	≥ 150	COc1cc(NC(=O)N2c3nc(-c4ccnc(N5CCC(C(F)(F)F)C5)c4)ccc3N3CC[C@H]2C3)ncn1 (some centres unmarked) [Example 368]
A (EC1.5<1 μM)	≥ 150	O=C(Nc1ccccn1)N1c2nc(-c3cncc(C(F)(F)F)c3)ccc2N2CCC[C@H]1C2 [Example 369]
B (EC1.5 1-25 μM)	≥ 150	Cc1n[nH]cc1-c1ccc2c(n1)N(C(=O)Nc1ccccn1)[C@H]1CCN2C1 [Example 370]
B (EC1.5 1-25 μM)	≥ 150	NC(=O)c1cncc(-c2ccc3c(n2)N(C(=O)Nc2ccccn2)[C@H]2CCN3C2)c1 [Example 371]
B (EC1.5 1-25 μM)	≥ 150	O=C(Nc1ccccn1)N1c2nc(-c3ccc4nonc4c3)ccc2N2CC[C@H]1C2 [Example 372]
A (EC1.5<1 μM)	≥ 150	N#Cc1cncc(-c2ccc3c(n2)N(C(=O)Nc2ccccn2)[C@H]2CCN3C2)c1 [Example 373]
B (EC1.5 1-25 μM)	≥ 150	O=C(Nc1ccccn1)N1c2nc(-c3cncc(F)c3)ccc2N2CC[C@H]1C2 [Example 374]
A (EC1.5<1 μM)	≥ 150	CS(=O)(=O)c1cncc(-c2ccc3c(n2)N(C(=O)Nc2ccccn2)[C@H]2CCCN3C2)c1 [Example 375]
A (EC1.5<1 μM)	≥ 150	CS(=O)(=O)c1cncc(-c2ccc3c(n2)N(C(=O)Nc2cccnc2)[C@H]2CCCN3C2)c1 [Example 376]
A (EC1.5<1 μM)	≥ 150	CS(=O)(=O)c1cncc(-c2ccc3c(n2)N(C(=O)Nc2cncc(F)c2)[C@H]2CCCN3C2)c1 [Example 377]
A (EC1.5<1 μM)	≥ 150	CS(=O)(=O)c1cncc(-c2ccc3c(n2)N(C(=O)Nc2cnccn2)[C@H]2CCCN3C2)c1 [Example 378]
A (EC1.5<1 μM)	≥ 150	CS(=O)(=O)c1cncc(-c2ccc3c(n2)N(C(=O)Nc2ccncn2)[C@H]2CCCN3C2)c1 [Example 379]
A (EC1.5<1 μM)	≥ 150	CS(=O)(=O)c1cncc(-c2ccc3c(n2)N(C(=O)Nc2cccnn2)[C@H]2CCCN3C2)c1 [Example 380]
B (EC1.5 1-25 μM)	≥ 150	N#Cc1cccc(-c2ccc3c(n2)N(C(=O)Nc2cccnn2)[C@H]2CCCN3C2)c1 [Example 381]
C (EC1.5>25 μM)	< 150	CC(C)(C)OC(=O)N1CCCN(c2ccc3c(n2)N(C(=O)Nc2ccncn2)[C@H]2CCCN3C2)CC1 [Example 382]
A (EC1.5<1 μM)	≥ 150	Cc1nc(NC(=O)N2c3nc(-c4cccc(N(C)C)c4)ccc3N3CCC[C@H]2C3)sc1C [Example 383]
B (EC1.5 1-25 μM)	≥ 150	CN(C)c1cccc(-c2ccc3c(n2)N(C(=O)Nc2ccc(F)cn2)[C@H]2CCCN3C2)c1 [Example 384]
A (EC1.5<1 μM)	≥ 150	COc1cc(NC(=O)N2c3nc(-c4cccc(N(C)C)c4)ccc3N3CCC[C@H]2C3)ncn1 [Example 385]
B (EC1.5 1-25 μM)	≥ 150	CN(C)c1cccc(-c2ccc3c(n2)N(C(=O)Nc2ccccn2)[C@H]2CCCN3C2)c1 [Example 386]

Tryp AVG EC1.5 (μM)	Emax [%]	Structure (SMILES)
A (EC1.5<1 μM)	≥ 150	O=C(Nc1ccccn1)N1c2nc(-c3cccc(Cl)c3)ccc2N2CCC[C@H]1C2 [Example 387]
A (EC1.5<1 μM)	≥ 150	O=C(Nc1ccccn1)N1c2nc(-c3ccnc(N4CCC(F)(F)C4)c3)ccc2N2CC[C@H]1C2 [Example 388]
A (EC1.5<1 μM)	≥ 150	O=C(Nc1cnccn1)N1c2nc(-c3ccnc(N4CCC(C(F)(F)F)C4)c3)ccc2N2CC[C@H]1C2 (some centres unmarked) [Example 389]
B (EC1.5 1-25 μM)	≥ 150	COc1cc(NC(=O)N2c3nc(-c4ccnc(N5CCC(F)(F)C5)c4)ccc3N3CC[C@H]2C3)ncn1 [Example 390]
A (EC1.5<1 μM)	≥ 150	O=C(Nc1ccc(F)cn1)N1c2nc(-c3ccnc(N4CCC(C(F)(F)F)C4)c3)ccc2N2CC[C@H]1C2 (some centres unmarked) [Example 391]
A (EC1.5<1 μM)	≥ 150	O=C(Nc1cccnc1)N1c2nc(-c3cncc(C(F)(F)F)c3)ccc2N2CCC[C@H]1C2 [Example 392]
A (EC1.5<1 μM)	≥ 150	O=C(Nc1ccncn1)N1c2nc(-c3cncc(C(F)(F)F)c3)ccc2N2CCC[C@H]1C2 [Example 393]
A (EC1.5<1 μM)	≥ 150	COc1cc(NC(=O)N2c3nc(-c4cncc(C(F)(F)F)c4)ccc3N3CCC[C@H]2C3)ncn1 [Example 394]
B (EC1.5 1-25 μM)	≥ 150	Cn1cc(-c2ccc3c(n2)N(C(=O)Nc2cccnc2)[C@H]2CCN3C2)cn1 [Example 395]
A (EC1.5<1 μM)	≥ 150	COc1cc(-c2cccc(Cl)c2)nc2c1N1CC[C@@H](C1)N2C(=O)Nc1cnccn1 [Example 396]
C (EC1.5>25 μM)	≥ 150	O=C(Nc1cnccn1)N1c2nc(-c3cc(F)cc(F)c3)ccc2N2CC[C@H]1C2 [Example 397]
B (EC1.5 1-25 μM)	≥ 150	COc1ncc(-c2ccc3c(n2)N(C(=O)Nc2cnccn2)[C@H]2CCN3C2)c(OC)n1 [Example 398]
B (EC1.5 1-25 μM)	≥ 150	COc1ccc(-c2ccc3c(n2)N(C(=O)Nc2cnccn2)[C@H]2CCN3C2)cn1 [Example 399]
B (EC1.5 1-25 μM)	≥ 150	O=C(Nc1cnccn1)N1c2nc(-c3cncc(F)c3)ccc2N2CC[C@H]1C2 [Example 400]
A (EC1.5<1 μM)	≥ 150	O=C(Nc1ccc(F)cn1)N1c2nc(-c3cncc(Cl)c3)ccc2N2CCC[C@H]1C2 [Example 401]
A (EC1.5<1 μM)	≥ 150	Cc1nc(NC(=O)N2c3nc(-c4cncc(Cl)c4)ccc3N3CCC[C@H]2C3)sc1C [Example 402]
A (EC1.5<1 μM)	≥ 150	CN(C)c1cccc(-c2ccc3c(n2)N(C(=O)Nc2cnccn2)[C@H]2CCCN3C2)c1 [Example 403]
A (EC1.5<1 μM)	≥ 150	COc1cc(NC(=O)N2c3nc(-c4cncc(F)c4)ccc3N3CCC[C@H]2C3)ncn1 [Example 404]
A (EC1.5<1 μM)	≥ 150	COc1cc(NC(=O)N2c3nc(-c4cncc(Cl)c4)ccc3N3CCC[C@H]2C3)ncn1 [Example 405]
A (EC1.5<1 μM)	≥ 150	O=C(Nc1ccccn1)N1c2nc(-c3cncc(Cl)c3)ccc2N2CCC[C@H]1C2 [Example 406]
A (EC1.5<1 μM)	≥ 150	O=C(Nc1cccnc1)N1c2nc(-c3cccc(Cl)c3)ccc2N2CCC[C@H]1C2 [Example 407]
A (EC1.5<1 μM)	≥ 150	COc1cc(NC(=O)N2c3nc(-c4cccc(Cl)c4)ccc3N3CCC[C@H]2C3)ncn1 [Example 408]
A (EC1.5<1 μM)	≥ 150	O=C(Nc1ccncc1)N1c2nc(-c3cccc(Cl)c3)ccc2N2CCC[C@H]1C2 [Example 409]
A (EC1.5<1 μM)	≥ 150	O=C(Nc1cncc(F)c1)N1c2nc(-c3ccnc(N4CCC(C(F)(F)F)C4)c3)ccc2N2CC[C@H]1C2 (some centres unmarked) [Example 410]
